Measured values as given in patent US20060127324A1, “Chewable oral compositions containing an anti-microbial agent and methods of formulating the compositions to have acceptable germ kill properties and taste” (Cadbury Adams USA LLC, priority 2004, published 2006).
Converted amounts (≈) assume the structure as drawn.

Assays:
[1] = Release of anti-microbial agent from chewing gum composition after 10 minutes of chewing; assay type: physicochemical; settings: for Q factor (100/percentage released): chewing gum composition; for Release Rate (%) After 10 Minutes of Chewing: chewing gum compositions
Procedure: The germ kill potential (P) therefore is determined by the product of the concentration of at least one anti-microbial agent contained in the composition and the germ kill rating of each anti-microbial agent. The result is in turn multiplied by the mass of the composition and a factor Q as defined previously which is a measure of how easily the anti-microbial agent is released from the oral composition into the oral cavity. The Q factor may be readily determined for a given oral composition by comparing the amount of the anti-microbial agent present in the oral composition before placement in the oral cavity and how much remains after placement in the oral cavity for a fixed period of time. For other compositions such as chewing gum compositions, the release rate of the anti-microbial agent is much slower. Typically only a portion of the anti-microbial agent is released instantaneously and/or on initial chewing. For example, the release rate of anti-microbial agents after 10 minutes of chewing can be as low as less than 10%. […] Thus, the factor Q is 11.1 (100%/9%). The targeted (P) value selected for the chewing gum composition would therefore have to be about 11.1 times greater than the (P) value for the corresponding pressed mint composition.

[2] = tested on: microorganisms found in the oral cavity; test: Germ kill rating (R), ratio of ATC and MIC; settings: mint lozenge having a weight of 1.5 grams
Text: The germ kill rating (R) is therefore a quantitative indication of the range of concentrations of the anti-microbial agent (i.e. effective concentration range) that may be employed to achieve both the desirable germ kill properties and acceptable taste. By way of example, an anti-microbial agent having a germ kill rating of 10 has an effective concentration range twice as large as an anti-microbial agent having a germ kill rating of 5. The germ kill rating (R) of each anti-microbial agent used in the oral composition is the ratio of the maximum acceptable taste concentration (ATC) of the anti-microbial agent and the minimum inhibitory concentration (MIC). The germ kill rating (R) is therefore a value representative of the suitability of a particular anti-microbial agent to provide a balance between acceptable taste and germ killing efficacy. A relatively high (R) value is indicative of an anti-microbial agent that can be used in a relatively large range of concentrations without adversely effecting taste while still obtaining the desired germ kill properties. […] The maximum acceptable taste concentration (ATC) of an anti-microbial agent can be determined through known population sampling methods. […] The results are averaged and analyzed according to known statistical methods to yield the ATC value for a particular anti-microbial agent in a given solid carrier (e.g. mint lozenge). […]

[3] = tested on: microorganisms found in the oral cavity; test: Minimum inhibitory concentration (MIC) of anti-microbial agent; assay type: cell-based
Text: The germ kill rating (R) of each anti-microbial agent used in the oral composition is the ratio of the maximum acceptable taste concentration (ATC) of the anti-microbial agent and the minimum inhibitory concentration (MIC). The germ kill rating (R) is therefore a value representative of the suitability of a particular anti-microbial agent to provide a balance between acceptable taste and germ killing efficacy. A relatively high (R) value is indicative of an anti-microbial agent that can be used in a relatively large range of concentrations without adversely effecting taste while still obtaining the desired germ kill properties. […] However, thymol has a very low maximum acceptable taste concentration and therefore provides a germ kill rating (R) of 1.1 which is lower than the other four essential oils in Table 2 even though the other essential oils have a higher minimum inhibitory concentration.

SMILES	Q factor (100/percentage released) [1]	Release Rate (%) After 10 Minutes of Chewing [1] [%]	Release Rate (%) After 10 Minutes of Chewing ([1]; listed as eucalyptol) [%]	Germ Kill Rating (R) [2]	MIC [3] [µg/mL]
CC12CCC(CC1)C(C)(C)O2 [Eucalyptol]	5.025	19.9	19.9	–	–
CC1CCC(C(C)C)C(O)C1 (centres unmarked) [Menthol]	11.1	9	–	24	500 (≈ 3200 µM)
CC(C)[C@@H]1CC[C@@H](C)CC1=O [Menthone]	–	10.4	–	–	–
COC(=O)c1ccccc1O [Methyl Salicylate]	–	8.9	–	–	–
Cc1ccc(C(C)C)c(O)c1 [Thymol]	–	–	–	1.1	87 (≈ 579 µM)
